Assay results from publication PMC12373846, “Hemoglobin as a pseudoperoxidase and drug target for oxidative stress-related diseases” (Signal Transduction and Targeted Therapy, 2025).
Where two headings read alike, the source gives them in different places.

Experiments:
CDK7 = target: T1, CDK7 (Homo sapiens, UniProt P50613); assay: KINOMEscan; type: binding; conditions: 10000 nM; read-out: Percent Control
T1 construct: purchased DiscoverX KINOMEscan scanEDGE; Eurofins Cerep SafetyScreen87
Procedure, shortened: (§1)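 scanEDGE kinase panel: site-directed competition binding with test compound. Receptor/enzyme liabilities: Delta SafetyScreen87 panel.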

RET = target: T2, RET (Homo sapiens, UniProt P07949); assay: KINOMEscan; type: binding; conditions: 10000 nM; read-out: Percent Control
T2 construct: purchased DiscoverX KINOMEscan scanEDGE; Eurofins Cerep SafetyScreen87
Procedure, shortened: as §1

CDK2 = target: T3, CDK2 (Homo sapiens, UniProt P24941); assay: KINOMEscan; type: binding; conditions: 10000 nM; read-out: Percent Control
T3 construct: purchased DiscoverX KINOMEscan scanEDGE; Eurofins Cerep SafetyScreen87
Procedure, shortened: as §1

PIK3CA = target: T4, PIK3CA (Homo sapiens, UniProt P42336); assay: KINOMEscan; type: binding; conditions: 10000 nM; read-out: Percent Control
T4 construct: purchased DiscoverX KINOMEscan scanEDGE; Eurofins Cerep SafetyScreen87
Procedure, shortened: as §1

BRAF = target: T5, BRAF (Homo sapiens, UniProt P15056); assay: KINOMEscan; type: binding; conditions: 10000 nM; read-out: Percent Control
T5 construct: purchased DiscoverX KINOMEscan scanEDGE; Eurofins Cerep SafetyScreen87
Procedure, shortened: as §1

VEGFR2 = target: T6, VEGFR2 (Homo sapiens, UniProt P35968); assay: KINOMEscan; type: binding; conditions: 10000 nM; read-out: Percent Control
T6 construct: purchased DiscoverX KINOMEscan scanEDGE; Eurofins Cerep SafetyScreen87
Procedure, shortened: as §1

AURKB = target: T7, AURKB (Homo sapiens, UniProt Q96GD4); assay: KINOMEscan; type: binding; conditions: 10000 nM; read-out: Percent Control
T7 construct: purchased DiscoverX KINOMEscan scanEDGE; Eurofins Cerep SafetyScreen87
Procedure, shortened: as §1

ABL1-phosphorylated = target: T8, ABL1-phosphorylated (Homo sapiens, UniProt P00519); assay: KINOMEscan; type: binding; conditions: 10000 nM; read-out: Percent Control
T8 construct: purchased DiscoverX KINOMEscan scanEDGE; Eurofins Cerep SafetyScreen87
Procedure, shortened: as §1

TIE2 = target: T9, TIE2 (Homo sapiens, UniProt Q02763); assay: KINOMEscan; type: binding; conditions: 10000 nM; read-out: Percent Control
T9 construct: purchased DiscoverX KINOMEscan scanEDGE; Eurofins Cerep SafetyScreen87
Procedure, shortened: as §1

[1] = target: T10, TYK2(JH1domain-catalytic) (Homo sapiens, UniProt P29597); assay: KINOMEscan; type: binding; conditions: 10000 nM; read-out: Percent Control
T10 construct: TYK2(JH1domain-catalytic); purchased DiscoverX KINOMEscan scanEDGE; Eurofins Cerep SafetyScreen87
Procedure, shortened: as §1

PIM2 = target: T11, PIM2 (Homo sapiens, UniProt Q9P1W9); assay: KINOMEscan; type: binding; conditions: 10000 nM; read-out: Percent Control
T11 construct: purchased DiscoverX KINOMEscan scanEDGE; Eurofins Cerep SafetyScreen87
Procedure, shortened: as §1

CSNK1G2 = target: T12, CSNK1G2 (Homo sapiens, UniProt P78368); assay: KINOMEscan; type: binding; conditions: 10000 nM; read-out: Percent Control
T12 construct: purchased DiscoverX KINOMEscan scanEDGE; Eurofins Cerep SafetyScreen87
Procedure, shortened: as §1

ERK1 = target: T13, ERK1 (Homo sapiens, UniProt P27361); assay: KINOMEscan; type: binding; conditions: 10000 nM; read-out: Percent Control
T13 construct: purchased DiscoverX KINOMEscan scanEDGE; Eurofins Cerep SafetyScreen87
Procedure, shortened: as §1

FGFR3 = target: T14, FGFR3 (Homo sapiens, UniProt P22607); assay: KINOMEscan; type: binding; conditions: 10000 nM; read-out: Percent Control
T14 construct: purchased DiscoverX KINOMEscan scanEDGE; Eurofins Cerep SafetyScreen87
Procedure, shortened: as §1

MKNK1 = target: T15, MKNK1 (Homo sapiens, UniProt Q9BUB5); assay: KINOMEscan; type: binding; conditions: 10000 nM; read-out: Percent Control
T15 construct: purchased DiscoverX KINOMEscan scanEDGE; Eurofins Cerep SafetyScreen87
Procedure, shortened: as §1

PAK2 = target: T16, PAK2 (Homo sapiens, UniProt Q13177); assay: KINOMEscan; type: binding; conditions: 10000 nM; read-out: Percent Control
T16 construct: purchased DiscoverX KINOMEscan scanEDGE; Eurofins Cerep SafetyScreen87
Procedure, shortened: as §1

ABL1-nonphosphorylated = target: T17, ABL1-nonphosphorylated (Homo sapiens, UniProt P00519); assay: KINOMEscan; type: binding; conditions: 10000 nM; read-out: Percent Control
T17 construct: purchased DiscoverX KINOMEscan scanEDGE; Eurofins Cerep SafetyScreen87
Procedure, shortened: as §1

[2] = In vivo pharmacokinetics (IV, PO); conditions: male, ICR, mouse, plasma, mice
Description: In vivo pharmacokinetic studies of KDS12025 were conducted by Medicilon (Shanghai, China). For both intravenous (IV) and oral (PO) administration, the compound was dissolved in a vehicle consisting of 10% Solutol and 90% distilled water. Male ICR mice (n = 4 per group) were fasted overnight and allowed access to food 4 h post-dosing, with water provided ad libitum. Following administration, blood samples (0.03 mL per time point) were collected via the submandibular vein. Samples were transferred to tubes containing sodium heparin and centrifuged at 6,800 x g for 6 min at 2–8 °C. Plasma was separated, transferred to Eppendorf tubes, and internal standard (IS: 10 ng/mL verapamil) was added. After vortexing for 1 min and centrifugation at 18,000 x g for 7 min, the supernatant was analyzed by liquid chromatography–tandem mass spectrometry (LC-MS/MS; TQ5500 Triple Quad, SCIEX). Pharmacokinetic parameters including area under the curve (AUC0–t and AUC0–∞), elimination half-life (t1/2), maximum plasma concentration (Cmax), and time to reach maximum concentration (Tmax) were calculated using noncompartmental analysis in Phoenix WinNonlin 7.0 (Pharsight, USA), an FDA-certified pharmacokinetic software.

aged C57BL/6J mice = assay: Open field locomotor activity, aging mice; type: in vivo, mouse; conditions: 26 month

T1 sequence (P50613 whole entry): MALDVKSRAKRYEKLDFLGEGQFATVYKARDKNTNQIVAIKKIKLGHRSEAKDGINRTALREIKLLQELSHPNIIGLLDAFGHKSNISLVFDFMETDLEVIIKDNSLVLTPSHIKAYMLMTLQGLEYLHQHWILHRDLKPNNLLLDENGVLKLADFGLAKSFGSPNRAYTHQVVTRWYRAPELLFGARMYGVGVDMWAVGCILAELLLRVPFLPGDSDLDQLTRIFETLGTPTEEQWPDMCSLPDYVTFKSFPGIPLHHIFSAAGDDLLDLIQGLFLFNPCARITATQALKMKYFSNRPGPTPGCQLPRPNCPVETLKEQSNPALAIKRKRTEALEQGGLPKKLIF
T16 sequence (Q13177 whole entry): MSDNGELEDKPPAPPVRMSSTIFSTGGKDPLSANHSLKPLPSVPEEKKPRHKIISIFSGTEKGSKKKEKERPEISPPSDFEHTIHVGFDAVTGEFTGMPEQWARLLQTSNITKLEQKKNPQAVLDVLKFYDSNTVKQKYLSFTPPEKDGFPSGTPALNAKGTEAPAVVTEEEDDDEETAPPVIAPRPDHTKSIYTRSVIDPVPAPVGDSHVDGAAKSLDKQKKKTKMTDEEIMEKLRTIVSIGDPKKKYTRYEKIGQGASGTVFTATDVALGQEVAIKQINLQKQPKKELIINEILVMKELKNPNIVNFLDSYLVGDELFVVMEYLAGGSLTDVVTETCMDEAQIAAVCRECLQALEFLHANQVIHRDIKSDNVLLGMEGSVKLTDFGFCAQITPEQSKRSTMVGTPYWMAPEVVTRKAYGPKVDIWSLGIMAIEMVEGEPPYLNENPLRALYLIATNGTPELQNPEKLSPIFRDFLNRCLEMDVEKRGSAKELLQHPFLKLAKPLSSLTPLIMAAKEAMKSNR
T7 sequence (Q96GD4 whole entry): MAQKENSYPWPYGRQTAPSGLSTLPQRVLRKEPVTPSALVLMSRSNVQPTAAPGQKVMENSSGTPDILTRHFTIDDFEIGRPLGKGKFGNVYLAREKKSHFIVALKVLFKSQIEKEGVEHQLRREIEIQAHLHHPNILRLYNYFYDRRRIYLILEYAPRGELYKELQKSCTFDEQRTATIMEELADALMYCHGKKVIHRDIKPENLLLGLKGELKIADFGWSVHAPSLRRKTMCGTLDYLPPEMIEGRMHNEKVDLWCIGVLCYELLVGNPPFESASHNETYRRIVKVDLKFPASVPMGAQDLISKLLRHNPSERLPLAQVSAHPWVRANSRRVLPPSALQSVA
T11 sequence (Q9P1W9 whole entry): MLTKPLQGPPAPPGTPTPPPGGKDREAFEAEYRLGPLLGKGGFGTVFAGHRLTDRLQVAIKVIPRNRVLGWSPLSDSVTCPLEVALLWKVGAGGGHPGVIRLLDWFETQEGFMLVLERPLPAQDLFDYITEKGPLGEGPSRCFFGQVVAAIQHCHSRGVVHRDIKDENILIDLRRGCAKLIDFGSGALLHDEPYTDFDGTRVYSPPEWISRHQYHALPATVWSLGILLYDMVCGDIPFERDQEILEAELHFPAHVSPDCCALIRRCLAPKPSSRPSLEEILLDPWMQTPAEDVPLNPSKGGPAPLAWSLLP
T17 sequence (P00519 whole entry): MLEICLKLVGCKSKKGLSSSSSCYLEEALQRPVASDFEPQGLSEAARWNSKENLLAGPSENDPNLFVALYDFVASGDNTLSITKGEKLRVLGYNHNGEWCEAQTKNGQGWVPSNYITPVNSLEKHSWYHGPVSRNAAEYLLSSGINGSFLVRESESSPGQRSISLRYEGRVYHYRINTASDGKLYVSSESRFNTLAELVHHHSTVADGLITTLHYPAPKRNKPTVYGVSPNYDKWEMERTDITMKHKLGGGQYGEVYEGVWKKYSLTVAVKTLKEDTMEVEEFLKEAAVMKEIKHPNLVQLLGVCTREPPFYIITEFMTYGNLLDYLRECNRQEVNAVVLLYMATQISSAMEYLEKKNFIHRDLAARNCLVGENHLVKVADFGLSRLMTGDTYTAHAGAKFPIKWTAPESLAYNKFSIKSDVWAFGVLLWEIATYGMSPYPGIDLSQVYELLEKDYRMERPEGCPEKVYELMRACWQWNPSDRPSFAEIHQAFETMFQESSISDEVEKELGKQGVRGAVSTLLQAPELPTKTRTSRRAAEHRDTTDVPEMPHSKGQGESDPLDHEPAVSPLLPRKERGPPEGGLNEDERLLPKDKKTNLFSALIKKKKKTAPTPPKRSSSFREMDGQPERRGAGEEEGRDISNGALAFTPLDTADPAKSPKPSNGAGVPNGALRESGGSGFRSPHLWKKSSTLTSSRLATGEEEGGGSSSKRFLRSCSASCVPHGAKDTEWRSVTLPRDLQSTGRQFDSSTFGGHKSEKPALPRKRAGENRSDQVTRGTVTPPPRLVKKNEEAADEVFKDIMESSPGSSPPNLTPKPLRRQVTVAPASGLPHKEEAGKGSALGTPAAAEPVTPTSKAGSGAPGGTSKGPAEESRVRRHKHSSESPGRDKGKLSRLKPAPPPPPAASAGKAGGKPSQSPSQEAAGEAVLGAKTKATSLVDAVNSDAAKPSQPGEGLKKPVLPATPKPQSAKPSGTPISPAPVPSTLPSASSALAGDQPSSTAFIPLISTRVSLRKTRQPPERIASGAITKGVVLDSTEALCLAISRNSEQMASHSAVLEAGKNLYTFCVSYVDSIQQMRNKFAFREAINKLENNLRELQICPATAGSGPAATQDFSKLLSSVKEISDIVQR
T8 sequence (P00519 whole entry): as above
T6 sequence (P35968 20-1356): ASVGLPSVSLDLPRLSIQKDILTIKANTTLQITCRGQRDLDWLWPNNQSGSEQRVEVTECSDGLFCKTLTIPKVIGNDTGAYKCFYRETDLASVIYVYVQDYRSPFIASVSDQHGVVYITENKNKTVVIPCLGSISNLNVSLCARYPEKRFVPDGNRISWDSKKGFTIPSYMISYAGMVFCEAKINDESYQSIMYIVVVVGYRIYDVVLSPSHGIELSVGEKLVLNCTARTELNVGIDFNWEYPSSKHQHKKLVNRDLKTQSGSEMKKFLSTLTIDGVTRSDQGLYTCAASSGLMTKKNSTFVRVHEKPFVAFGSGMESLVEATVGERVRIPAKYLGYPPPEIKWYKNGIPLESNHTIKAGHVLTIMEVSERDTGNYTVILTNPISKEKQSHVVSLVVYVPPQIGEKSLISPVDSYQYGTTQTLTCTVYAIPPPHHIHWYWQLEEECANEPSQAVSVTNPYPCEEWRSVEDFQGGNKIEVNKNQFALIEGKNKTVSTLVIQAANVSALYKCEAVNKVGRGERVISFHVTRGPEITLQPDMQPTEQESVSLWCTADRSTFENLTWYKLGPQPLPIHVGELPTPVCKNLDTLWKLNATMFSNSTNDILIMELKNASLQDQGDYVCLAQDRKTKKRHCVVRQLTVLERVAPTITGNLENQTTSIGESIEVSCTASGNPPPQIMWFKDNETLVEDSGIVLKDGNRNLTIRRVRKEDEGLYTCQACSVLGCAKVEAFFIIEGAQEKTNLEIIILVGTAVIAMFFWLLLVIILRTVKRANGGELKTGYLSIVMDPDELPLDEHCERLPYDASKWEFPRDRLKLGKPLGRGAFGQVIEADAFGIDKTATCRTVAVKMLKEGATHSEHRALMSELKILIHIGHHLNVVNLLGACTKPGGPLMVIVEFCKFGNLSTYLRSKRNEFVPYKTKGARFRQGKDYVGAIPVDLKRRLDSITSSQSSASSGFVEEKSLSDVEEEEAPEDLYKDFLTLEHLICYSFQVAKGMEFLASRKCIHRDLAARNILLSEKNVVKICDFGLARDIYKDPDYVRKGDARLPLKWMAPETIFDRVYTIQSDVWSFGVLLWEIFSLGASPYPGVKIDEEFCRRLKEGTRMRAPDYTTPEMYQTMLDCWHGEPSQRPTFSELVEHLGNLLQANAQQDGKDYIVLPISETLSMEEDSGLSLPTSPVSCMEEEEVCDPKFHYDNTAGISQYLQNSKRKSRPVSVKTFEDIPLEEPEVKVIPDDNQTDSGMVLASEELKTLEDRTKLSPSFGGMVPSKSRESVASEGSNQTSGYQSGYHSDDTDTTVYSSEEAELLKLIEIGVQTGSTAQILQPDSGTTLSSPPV
T12 sequence (P78368 whole entry): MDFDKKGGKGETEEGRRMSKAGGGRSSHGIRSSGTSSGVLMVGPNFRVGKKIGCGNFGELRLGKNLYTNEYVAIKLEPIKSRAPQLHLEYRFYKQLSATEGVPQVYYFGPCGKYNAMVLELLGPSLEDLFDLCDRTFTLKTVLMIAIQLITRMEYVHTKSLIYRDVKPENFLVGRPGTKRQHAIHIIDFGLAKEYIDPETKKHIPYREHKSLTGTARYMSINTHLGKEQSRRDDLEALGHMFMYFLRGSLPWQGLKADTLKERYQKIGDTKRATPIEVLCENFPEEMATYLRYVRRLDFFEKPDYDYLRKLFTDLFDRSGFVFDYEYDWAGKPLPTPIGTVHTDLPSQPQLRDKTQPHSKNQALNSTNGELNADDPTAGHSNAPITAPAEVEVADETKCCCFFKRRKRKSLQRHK
T15 sequence (Q9BUB5 whole entry): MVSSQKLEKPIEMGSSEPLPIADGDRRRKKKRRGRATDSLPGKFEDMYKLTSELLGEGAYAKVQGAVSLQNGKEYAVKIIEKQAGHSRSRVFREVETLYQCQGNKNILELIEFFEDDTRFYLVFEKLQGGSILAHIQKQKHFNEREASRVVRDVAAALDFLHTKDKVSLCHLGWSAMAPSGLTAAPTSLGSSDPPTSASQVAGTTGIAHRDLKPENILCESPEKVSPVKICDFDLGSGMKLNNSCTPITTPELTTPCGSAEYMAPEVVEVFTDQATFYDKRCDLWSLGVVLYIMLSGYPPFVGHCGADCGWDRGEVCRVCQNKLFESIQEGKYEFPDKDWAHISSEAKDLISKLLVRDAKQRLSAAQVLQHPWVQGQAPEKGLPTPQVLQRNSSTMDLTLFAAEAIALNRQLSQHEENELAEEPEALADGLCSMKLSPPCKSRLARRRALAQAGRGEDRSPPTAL

SMILES: CNc1ccc(NCCc2ccccc2OC)cc1.Cl [KDS12025, N^1-(2-methoxyphenethyl)-N^4-methylbenzene-1,4-diamine hydrochloride salt]
- remaining binding at 10 µM (CDK7): 89%
- remaining binding at 10 µM (RET): 100%
- remaining binding at 10 µM (CDK2): 92%
- remaining binding at 10 µM (PIK3CA): 63%
- remaining binding at 10 µM (BRAF): 100%
- remaining binding at 10 µM (VEGFR2): 100%
- remaining binding at 10 µM (AURKB): 78%
- remaining binding at 10 µM (ABL1-phosphorylated): 100%
- remaining binding at 10 µM (TIE2): 100%
- remaining binding at 10 µM [1]: 93%
- remaining binding at 10 µM (PIM2): 64%
- remaining binding at 10 µM (CSNK1G2): 45%
- remaining binding at 10 µM (ERK1): 83%
- remaining binding at 10 µM (FGFR3): 91%
- remaining binding at 10 µM (MKNK1): 100%
- remaining binding at 10 µM (PAK2): 94%
- remaining binding at 10 µM (ABL1-nonphosphorylated): 72%
- bioavailability ([2]; 5 mg/kg IV and 30 mg/kg PO, read-out: F (bioavailability)): 87.4%
- AUC ([2]; 5 mg/kg IV, read-out: AUCall, IV): 687 ± 118 ng·h/mL
- half-life ([2]; 5 mg/kg IV, read-out: t1/2, IV (converted)): 57.6 ± 5.4 min
- AUC ([2]; 30 mg/kg PO, read-out: AUCall, PO): 3600 ± 662 ng·h/mL
- Cmax ([2]; cell spans IV and PO heads, probably 30 mg/kg PO): 2310 ± 344 ng/mL
- distance traveled (Fig. 7d) (aged C57BL/6J mice; 0.1mpk): 3262±203
- locomotor velocity (Fig. 7c) (aged C57BL/6J mice; 0.1mpk): 5.42±0.34
- distance traveled (Fig. 7d) (aged C57BL/6J mice; 1mpk): 3600±561
- locomotor velocity (Fig. 7c) (aged C57BL/6J mice; 1mpk): 6.24±0.6
